The text below walks through data of patent publication US7718390B2, “Toxoplasma gondii cylclic GMP dependent protein kinase G as a chemotherapeutic target for antiprotozoal agents” (priority 1999, dated 2010).

The test system of assay [1] is E. tenella PKG (120 kDa protein). In words: Competitive binding assay using [3H] Inhibitor Compound. Also on record: species or system Eimeria tenella. To be noted: purified native PKG fraction. The method, then:
PKG is incubated with appropriately diluted [^3H] Inhibitor Compound for 60 minutes on ice and free ligand is separated from bound ligand by elution through 0.8 ml G-25 gel filtration columns (purchased from AGTC). The void volume, containing ligand-bound protein, is collected and radioactivity assessed by liquid scintillation counting. For competitive binding studies, excess or appropriately diluted cold competitor(s) are added simultaneously with, or 0.01-5 minutes before, the addition of radiolabeled compound. The concentration of the test compound required to inhibit 50% (IC50) of the binding of the labeled inhibitor to the parasite drug binding protein(s) is calculated.
For the competitive binding assay PKG may be the S100 fraction, crude preparation containing PKG activity, or recombinant PKG. Generally, the PKG preparation contains 20-50 μg of protein.
The S100 fraction was dialyzed against 2 L of Buffer A (30 mM sodium phosphate, pH 7.4, 1 mM DTT, 1 mM EDTA, 20% glycerol, 10 mM sodium fluoride, 0.1 mM sodium orthovanadate) overnight at room temperature. The dialysate was centrifuged at 100,000×g for 1 hour and the pellet discarded. […]
(d) cGMP agarose affinity chromatography. […] Fractions were analyzed for [^3H]-Inhibitor Compound binding, PKG activity and by silver staining following polyacrylamide gel electrophoresis. […]

For another assay, the target named is E. tenella PKG (Eimeria tenella, UniProt Q8MMZ8). In words: biochemical. The class given is biochemical. The settings on record: for pIC50: read-out: IC50, inhibition of PKG catalytic activity.
E. tenella PKG, sequence (Q8MMZ8 2-1003): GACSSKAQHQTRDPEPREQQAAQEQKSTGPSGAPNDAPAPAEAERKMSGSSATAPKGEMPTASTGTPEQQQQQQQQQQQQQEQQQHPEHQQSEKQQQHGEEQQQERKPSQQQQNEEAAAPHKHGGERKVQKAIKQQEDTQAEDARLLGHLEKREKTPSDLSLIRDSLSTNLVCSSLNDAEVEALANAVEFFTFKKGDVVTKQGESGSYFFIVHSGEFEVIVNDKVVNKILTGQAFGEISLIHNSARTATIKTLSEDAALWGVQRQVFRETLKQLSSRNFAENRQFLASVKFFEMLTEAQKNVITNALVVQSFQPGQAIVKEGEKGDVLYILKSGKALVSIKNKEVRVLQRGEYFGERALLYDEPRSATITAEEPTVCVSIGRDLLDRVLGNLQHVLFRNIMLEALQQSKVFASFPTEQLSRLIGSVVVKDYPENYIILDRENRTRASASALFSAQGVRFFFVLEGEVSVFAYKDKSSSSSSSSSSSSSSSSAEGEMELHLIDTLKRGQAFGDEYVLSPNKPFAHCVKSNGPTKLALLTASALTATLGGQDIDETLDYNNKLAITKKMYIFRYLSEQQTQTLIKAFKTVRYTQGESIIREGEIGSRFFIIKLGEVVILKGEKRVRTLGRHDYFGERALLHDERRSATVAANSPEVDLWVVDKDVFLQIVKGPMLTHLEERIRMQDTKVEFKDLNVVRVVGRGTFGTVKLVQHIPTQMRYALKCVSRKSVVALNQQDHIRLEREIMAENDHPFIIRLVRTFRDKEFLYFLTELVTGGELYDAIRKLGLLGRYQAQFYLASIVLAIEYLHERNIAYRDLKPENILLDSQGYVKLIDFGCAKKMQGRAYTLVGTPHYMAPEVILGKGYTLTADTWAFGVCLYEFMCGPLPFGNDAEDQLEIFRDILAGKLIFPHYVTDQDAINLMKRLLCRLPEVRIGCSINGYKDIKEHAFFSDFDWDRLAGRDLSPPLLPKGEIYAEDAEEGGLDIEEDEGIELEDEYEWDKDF

pIC50: −log10 of the molar value. Read-outs that look alike come from different tables or passages of the source. Bounds are passed on as bounds.

Regarding `CN1CCC(c2cc(-c3ccncc3)c(-c3ccc(F)cc3)[nH]2)CC1` [Inhibitor Compound, 2-(4-fluorophenyl)-5-(N-methylpiperidin-4-yl)-3-(4-pyridyl)pyrrole], the “binding to the 120 kDa E. tenella protein (PKG)” value in assay [1] is given as “specifically binds”. The pIC50 – broadly, −log10 of the IC50, conventionally taken in molar units – on E. tenella PKG (native E. tenella PKG) is over 8.30; on E. tenella PKG (recombinant expressed E. tenella PKG (Et.PKG7, Sf9 cells)) it was over 8.30.

Consider `Nc1nc2c(ncn2[C@@H]2O[C@@H]3COP(=O)(O)O[C@H]3[C@H]2O)c(=O)[nH]1` [cGMP], for which, at E. tenella PKG (biochemically purified native E. tenella protein, compared with absence of cyclic nucleotide cofactors), the “stimulation of kinase activity by cyclic nucleotide cofactor” value is “greater than 400 fold”.
